# Source: patent US20260206757A1, “METHODS OF CONTROLLING UNDESIRABLE PLANTS WITH PPO HERBICIDES AND COMBINATIONS IN HERBICIDE TOLERANT CROP PLANTS” (BASF AGRO B.V., priority 2022, published 2026)
# What was measured:
# Amaranthus retroflexus = assay: Field experiment, post-emergence herbicidal activity; assay type: in vivo; conditions: AMARE, postemergence
# Procedure: (§1) Trial Objective: Saflufenacil in tank mix with Pendimethalin efficacy on weeds and grasses in early post-emergence of the weeds
# (§2) On field test sites, natural weed infestation was treated, pre-emergence of the weeds on bare soil or post-emergence of the weeds.
# (§3) For the post emergence treatment, the weedy plants were treated between the 2-4 true leaf stage (GS12-14) and the 6 true leaf stage (GS 16). The herbicidal compositions were suspended or emulsified in water as distribution medium and sprayed with commercial flat fan nozzles using between 100 and 200 l/ha water.
# (§4) In the following experiments, the herbicidal activity for the individual herbicidal compositions (solo and mixture applications) was assessed up to 36 days after treatment (DAT). The assessments for the damage on undesired weeds caused by the chemical compositions was carried out using a scale from 0 to 100%, compared to the untreated control plants. Here, 0 means no damage and 100 means complete destruction of the plants.
# (§5) [formula] • where X=effect in percent using herbicide (A) at an application rate a; • Y=effect in percent using herbicide (B) at an application rate b; • E=expected effect (in %) of herbicide (A)+herbicide (B) at application rates a+b.
# (§6) The value E corresponds to the effect (plant damage or injury) which is to be expected if the activity of the individual compounds is additive. If the observed effect is higher than the value E calculated according to the Colby equation, a synergistic effect is present.
# Echinochloa crus-galli = assay: as above; assay type: in vivo; conditions: ECHCG, postemergence
# Procedure: as §1, §2, §3, §4, §5, §6
# Mercuralis annua = assay: as above; assay type: in vivo; conditions: MERAN, postemergence, Saflufenacil 12.5, Pendimethalin 1365 g ai/ha
# Procedure: as §1, §2, §3, §4, §5, §6
# Portulaca oleracea = assay: Greenhouse experiment, post emergence herbicidal activity; assay type: in vivo; conditions: POROL, BBCH 12-14, Flumioxazin 4, Bifenox 168 g ai/ha
# Procedure: (§7) For the post emergence treatment, the plants were first grown to the 2 to 4 leaf stage (GS 12/14). The plants were cultivated due to their individual requirements at 10-25° C. and 20-35° C. The plants were irrigated as required.
# (§8) Here, the herbicidal compositions were suspended or emulsified in water as distribution medium and sprayed using finely distributing nozzles. 1% methylated seed oil (MSO) has been added as adjuvant to each of the solo and mixture treatments.
# (§9) In the greenhouse experiments, the herbicidal activity for the individual herbicidal compositions (solo and mixture applications) was assessed 20/21 days after treatment (DAT).
# (§10) The evaluation for the damage on undesired weeds caused by the chemical compositions was carried out using a scale from 0 to 100%, compared to the untreated control plants. Here, 0 means no damage and 100 means complete destruction of the plants.
# HELAN Pacino = assay: Greenhouse experiment, crop safety of sunflower; assay type: in vivo, Helianthus annuus; conditions: scale 0 to 100%
# Procedure: as §7, §8, §9, §10
# HELAN w F(383)I = assay: Greenhouse experiment, crop safety of PPO inhibitor tolerant sunflower; assay type: in vivo, Helianthus annuus; conditions: scale 0 to 100%
# Procedure: as §7, §8, §9, §10
# [1] = Saflufenacil 12.5, Pendimethalin 1064 g ai/ha
# [2] = BBCH 12-14, Flumioxazin 0.5, Bifenox 168 g ai/ha
# [3] = BBCH 12-14, Flumioxazin 0.5, Halauxifen 1 g ai/ha
Compound,"% Herbicidal activity (Amaranthus retroflexus; Saflufenacil 12.5, Pendimethalin 840 g ai/ha) [%]",% Herbicidal activity (Amaranthus retroflexus; [1]) [%],% Herbicidal activity (Echinochloa crus-galli; [1]) [%],"% Herbicidal activity (Echinochloa crus-galli; Saflufenacil 12.5, Pendimethalin 1365 g ai/ha) [%]","% Herbicidal activity (Echinochloa crus-galli; Saflufenacil 50, Pendimethalin 1064 g ai/ha) [%]",% Herbicidal activity (Mercuralis annua) [%],% Herbicidal activity (Portulaca oleracea) [%],Observed crop damage 21 days after treatment (HELAN Pacino; [2]) [%],Observed crop damage 21 days after treatment (HELAN Pacino; [3]) [%],Observed crop damage 21 days after treatment (HELAN w F(383)I; [2]) [%],Observed crop damage 21 days after treatment (HELAN w F(383)I; [3]) [%]
"CC(C)N(C)S(=O)(=O)NC(=O)c1cc(-n2c(=O)cc(C(F)(F)F)n(C)c2=O)c(F)cc1Cl [Saflufenacil, 2-chloro-5-[3,6-dihydro-3-methyl-2,6-dioxo-4-(trifluoromethyl)-1-(2H)pyrimidinyl]-4-fluoro-N-[[methyl (1-methylethyl)amino]-sulfonyl]benzamide]",35,60,0,5,0,0,–,–,–,–,–
"C#CCN1C(=O)COc2cc(F)c(N3C(=O)C4=C(CCCC4)C3=O)cc21 [Flumioxazin, 2-[7-fluoro-3,4-dihydro-3-oxo-4-(2-propyn-1-yl)-2H-1,4-benzoxazin-6-yl]-4,5,6,7-tetrahydro-1H-isoindole-1,3 (2H)-dione]",–,–,–,–,–,–,98,65,65,15,15
